Measurements reported in patent publication US20250163074A1, “CDK Inhibitors And Their Use As Pharmaceuticals” (Prelude Therapeutics Incorporated, priority 2020, published 2025).
Like-named read-outs stand apart in the source and are kept apart here.

Tests used:
CDK4/Cyclin D1 = CDK4/Cyclin D1 (Homo sapiens (Human), UniProt P11802); assay: CDK4/CyclinD1 enzymatic activity assay (TR-FRET); type: biochemical; conditions: CDK4/CyclinD1 1 nM, ATP 2 mM, read-out: CDK4_D1 IC50
Experimental: CDK4/CyclinD1 Enzymatic Activity Assay
The inhibitory activity of compounds was evaluated in vitro using TR-FRET assay with white 384-well low volume microplate (Greiner Bio-One). CDK4/Cyclin D1 catalyzed phosphorylation of peptide in the presence and absence of compounds was measured. IC50 determination. Recombinant protein complex CDK4/Cyclin D1, expressed from insect cell, was purchased from ProQinase. Testing compounds were dissolved in DMSO at 0.1 mM and tested in 9-dose IC50 mode. The reaction mixture was prepared by mixing CDK4/CyclinD1 (1 nM final), ULight-4E-BP1 (100 nM final, Perkinelmer, TRF0128-D), and ATP (2 mM final) in assay buffer (20 mM of HEPES pH 7.4, 1 mM of EGTA, 0.05% BSA, 0.005% Tween 20, and 1 mM TCEP). The compound of interest in DMSO was added to each well in 3-fold serial dilution by dispenser (TECAN D300E). After 20 minutes preincubation at room temperature, MgCl2 (10 mM final) was added to initiate the reaction. Following a 60 minutes incubation at 37° C., the reaction was stopped by addition of 2 μL of quenching buffer consisting of Lance detection buffer (Perkinelmer CR97-100C), 2 nM LANCE Ultra Europium-anti-P-4E-BP1 (Perkinelmer, TRF0216-D), 10 mM EDTA, and incubate at room temperature for additional 60 minutes in dark. The reaction signal was measured by Envision multimode plate reader (PerkinElmer, 2102-0010). IC50 values were determined by fitting the data to the standard 4 parameters with Hill Slope using GraphPad Prism software.

[1] = test system: MCF7 adenocarcinoma cell line; assay: Cell proliferation studies in MCF7 cells (ATP-Lite); type: cell-based; conditions: 10 days incubation, cell viability by ATP-Lite luminescence, read-out: PROLIFERATION_CTG_MCF7 IC50
Experimental: Cell Proliferation Studies in MCF7 Cells
Cell proliferation studies were conducted in MCF7 adenocarcinoma cell line. Cells were maintained in DMEM (Corning, Catalog #: 10-013-CV) supplemented with 10% v/v FBS (Gibco, Catalog #: 26140-079), 1% v/v Penicillin Streptomycin (Gibco, Catalog #15140-122) Cells were seeded in 384-well plates at a density of 100 or 200 cells/well. Compounds dissolved in DMSO were plated in quadruplicate using a digital dispenser (D300E, Tecan) and tested on a 9-point 3-fold serial dilution. Cells were incubated for 10 days in a 37° C. active humidified incubator at 5% CO2. A media exchange and second compound addition were performed on day 5. Cell viability was measured using the ATP-Lite 1-Step Luminescence reagent (Perkin Elmer, Catalog #: 6016731) as per manufacturer's instructions. Luminescence signal was measured with a multimode plate reader (Envision 2105, Perkin Elmer). Raw data files were imported to Dotmatics Screening Ultra for IC50 analysis. Luminescence values were normalized to both background and DMSO controls to obtain a percentage of viable cells relative to DMSO vehicle control.

Sequence of CDK4/Cyclin D1 (P11802 whole entry): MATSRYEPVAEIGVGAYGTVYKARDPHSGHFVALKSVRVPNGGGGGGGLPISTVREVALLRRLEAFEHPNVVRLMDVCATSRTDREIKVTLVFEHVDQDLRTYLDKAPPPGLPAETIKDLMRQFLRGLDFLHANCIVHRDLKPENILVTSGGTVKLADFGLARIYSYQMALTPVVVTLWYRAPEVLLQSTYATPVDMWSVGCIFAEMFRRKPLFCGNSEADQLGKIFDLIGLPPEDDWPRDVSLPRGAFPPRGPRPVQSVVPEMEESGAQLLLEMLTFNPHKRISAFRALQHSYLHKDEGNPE
Sequence of CDK4/Cyclin D1 (P24385 whole entry partner): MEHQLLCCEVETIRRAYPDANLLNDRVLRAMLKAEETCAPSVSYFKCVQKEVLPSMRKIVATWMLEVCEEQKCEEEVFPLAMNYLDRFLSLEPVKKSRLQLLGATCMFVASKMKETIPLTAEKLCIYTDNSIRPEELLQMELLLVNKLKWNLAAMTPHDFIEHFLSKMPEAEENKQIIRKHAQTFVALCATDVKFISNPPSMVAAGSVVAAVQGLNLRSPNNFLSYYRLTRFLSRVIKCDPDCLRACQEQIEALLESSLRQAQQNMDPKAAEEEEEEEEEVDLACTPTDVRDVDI

Row | SMILES | IC50 (CDK4/Cyclin D1) [nM] | IC50 ([1]; Homo sapiens, 240 h) [nM] | IC50 [1] [nM]
1 | CCN1C(=O)c2c(sc(-c3nc(Nc4ccc(C5CCN(C)CC5)cn4)ncc3Cl)c2C)C12CC2 [Example 11, 2′-(5-Chloro-2-((5-(1-methyl-piperidin-4-yl)pyridin-2-yl)amino)pyrimidin-4-yl)-5′-ethyl-3′-methylspiro[cyclopropane-1,6′-thieno[2,3-c]pyrrol]-4′(5′H)-one] | ≤ 20 | 20 to 200 | 
2 | CCN1C(=O)c2cc(-c3nc(Nc4ccc(N5C[C@H]6CN(C)C[C@H]6C5)cn4)ncc3C)sc2C12CC2 [Example 17] | ≤ 20 |  | 20 to 200
3 | CCN1C(=O)c2cc(-c3nc(Nc4ccc(C5CCN(C)CC5)cn4)ncc3C)sc2C12CC2 [Example 19, 5′-Ethyl-2′-[5-methyl-2-[[5-(1-methylpiperidin-4-yl)pyridin-2-yl]amino]pyrimidin-4-yl]spiro[cyclopropane-1,6′-thieno[2,3-c]pyrrole]-4′-one] | ≤ 20 | 20 to 200 | 
4 | CCN1CCC(c2ccc(Nc3ncc(F)c(-c4cc5c(s4)C4(CC4)CN(C)C5=O)n3)nc2)C1 (stereo not drawn) [Example 31, 2′-(2-((5-(1-Ethylpyrrolidin-3-yl)pyridin-2-yl)amino)-5-fluoropyrimidin-4-yl)-5′-methyl-5′,6′-dihydro-4′H-spiro[cyclo-propane-1,7′-thieno[3,2-c]pyridin]-4′-one] | ≤ 20 | 200 to 2000 | 
5 | Cc1c(-c2nc(Nc3ccc(N4CC5CC(C4)N5C)cn3)ncc2F)sc2c1C(=O)N(C)CC21CC1 [Example 33, 2′-(5-Fluoro-2-((5-(6-methyl-3,6-diazabicyclo[3.1.1]heptan-3-yl)pyridin-2-yl)amino)pyrimidin-4-yl)-3′,5′-dimethyl-5′,6′-dihydro-4′H-spiro[cyclopropane-1,7′-thieno[3,2-c]pyridin]-4′-one] | ≤ 20 | 20 to 200 | 
6 | CCN1CCN(Cc2ccc(Nc3ncc(F)c(-c4sc5c(c4C)C(=O)N(C)CC54CC4)n3)nc2)CC1 [Example 38, 2′-(2-((5-((4-Ethylpiperazin-1-yl)methyl)pyridin-2-yl)amino)-5-fluoropyrimidin-4-yl)-3′,5′-dimethyl-5′,6′-dihydro-4′H-spiro[cyclopropane-1,7′-thieno[3,2-c]pyridin]-4′-one] | ≤ 20 | 200 to 2000 | 
7 | CCN1CC2(C1)CN(c1ccc(Nc3ncc(C)c(-c4sc5c(c4C)C(=O)N(C)CC54CC4)n3)nc1)C2 [Example 42, 2-[2-[[5-(6-Ethyl-2,6-diazaspiro[3.3]heptan-2-yl)pyridin-2-yl]amino]-5-methylpyrimidin-4-yl]-3,5-dimethylspiro[6H-thieno[3,2-c]pyridine-7,1′-cyclopropane]-4-one] | ≤ 20 | 20 to 200 | 
8 | CCN1CC2(C1)CN(c1ccc(Nc3ncc(Cl)c(-c4sc5c(c4C)C(=O)N(C)CC54CC4)n3)nc1)C2 [Example 44] | ≤ 20 |  | 20 to 200
9 | CN1CC2(CCC2)c2sc(-c3nc(Nc4ccc(C5CCN(CC(F)F)CC5)cn4)ncc3F)cc2C1=O [Example 49, 2′-(2-((5-(1-(2,2-Difluoroethyl)piperidin-4-yl)pyridin-2-yl)amino)-5-fluoropyrimidin-4-yl)-5′-methyl-5′,6′-dihydro-4′H-spiro[cyclobutane-1,7′-thieno[3,2-c]pyridin]-4′-one] | ≤ 20 |  | 
10 | CCN1CCC12CN(c1ccc(Nc3ncc(F)c(-c4cc5c(s4)C4(CCC4)CN(C)C5=O)n3)nc1)C2 [Example 51, 2′-(2-((5-(1-Ethyl-1,6-diazaspiro[3.3]heptan-6-yl)pyridin-2-yl)amino)-5-fluoropyrimidin-4-yl)-5′-methyl-5′,6′-dihydro-4′H-spiro[cyclobutane-1,7′-thieno[3,2-c]pyridin]-4′-one] | ≤ 20 | 20 to 200 | 
11 | CCN1CCN(Cc2ccc(Nc3ncc(F)c(-c4sc5c(c4C)C(=O)N(C)CC54CCC4)n3)nc2)CC1 [Example 56, 2′-(2-((5-((4-Ethylpiperazin-1-yl)methyl)pyridin-2-yl)amino)-5-fluoropyrimidin-4-yl)-3′,5′-dimethyl-5′,6′-dihydro-4′H-spiro[cyclobutane-1,7′-thieno[3,2-c]pyridin]-4′-one] | ≤ 20 |  | 
12 | CN1CCN(c2ccc(Nc3ncc(F)c(-c4cc5c(s4)C4(CCCC4)CN(C)C5=O)n3)nc2)C(C(F)(F)F)C1 (stereo not drawn) [Example 65, 2-[5-Fluoro-2-[[5-[4-methyl-2-(trifluoromethyl)piperazin-1-yl]pyridin-2-yl]amino]pyrimidin-4-yl]-5-methylspiro[6H-thieno[3,2-c]pyridine-7,1′-cyclopentane]-4-one] | ≤ 20 |  | 
13 | CCN1CCN(Cc2ccc(Nc3ncc(F)c(-c4ccc5c(c4)C4(CCCC4)CN(C)C5=O)n3)nc2)CC1 [Example 68, 6′-(2-((5-((4-Ethylpiperazin-1-yl)methyl)pyridin-2-yl)amino)-5-fluoropyrimidin-4-yl)-2′-methyl-2′,3′-dihydro-1′H-spiro [cyclo-pentane-1,4′-isoquinolin]-1′-one] | ≤ 20 |  | 
14 | CCN1CC2(C1)CN(c1ccc(Nc3ncc(F)c(-c4ccc5c(c4)C4(CCC4)CN(C)C5=O)n3)nc1)C2 [Example 69, 6′-(2-((5-(6-Ethyl-2,6-diazaspiro[3.3]heptan-2-yl)pyridin-2-yl)amino)-5-fluoropyrimidin-4-yl)-2′-methyl-2′,3′-dihydro-1′H-spiro[cyclobutane-1,4′-isoquinolin]-1′-one] | 20 to 200 |  | 
15 | C/C=C/CN1CCC(c2ccc(Nc3ncc(F)c(-c4sc5c(c4C)C(=O)N(C)C54CC4)n3)nc2)C1 (stereo not drawn) [Example 72, (E)-2′-(2-((5-(1-(But-2-en-1-yl)pyrrolidin-3-yl)pyridin-2-yl)amino)-5-fluoropyrimidin-4-yl)-3′,5′-dimethylspiro[cyclopropane-1,6′-thieno[2,3-c]pyrrol]-4′(5′H)-one] | ≤ 20 |  | 
16 | CCN1CC2(C1)CN(c1ccc(Nc3ncc(F)c(-c4cc5c(s4)C4(CCCCC4)CN(CC)C5=O)n3)nc1)C2 [Example 75, 5′-Ethyl-2′-(2-((5-(6-ethyl-2,6-diazaspiro[3.3]heptan-2-yl)pyridin-2-yl)amino)-5-fluoropyrimidin-4-yl)-5′,6′-dihydro-4′H-spiro[cyclohexane-1,7′-thieno[3,2-c]pyridin]-4′-one] | 20 to 200 |  | 
17 | CCN1CC2(C1)CN(c1ccc(Nc3ncc(F)c(-c4cc5c(s4)C4(CN(C)C5=O)CC5(CC5)C4)n3)nc1)C2 [Example 76, 2″-(2-((5-(6-Ethyl-2,6-diazaspiro[3.3]heptan-2-yl)pyridin-2-yl)amino)-5-fluoropyrimidin-4-yl)-5″-methyl-5″,6″-dihydro-4″H-dispiro[cyclopropane-1,1′-cyclobutane-3′,7″-thieno[3,2-c]pyridin]-4″-one] | ≤ 20 |  | 
18 | CN1CCC(c2ccc(Nc3ncc(F)c(-c4ccc5c(c4)C4(CCCC4)N(C)C5=O)n3)nc2)CC1 [Example 79, 6′-(5-Fluoro-2-((5-(1-methylpiperidin-4-yl)pyridin-2-yl)amino)pyrimidin-4-yl)-2′-methylspiro[cyclopentane-1,1′-isoindolin]-3′-one] | 20 to 200 |  | 
19 | CN1CCC(c2ccc(Nc3ncc(F)c(-c4cc5c(s4)C4(CN(C)C5=O)CC(F)(F)C4)n3)nc2)CC1 [Example 84, 3,3-Difluoro-2′-(5-fluoro-2-((5-(1-methylpiperidin-4-yl)pyridin-2-yl)amino)pyrimidin-4-yl)-5′-methyl-5′,6′-dihydro-4′H-spiro[cyclobutane-1,7′-thieno[3,2-c]pyridin]-4′-one] | 20 to 200 |  | 
20 | CCN1CC2(C1)CN(c1ccc(Nc3ncc(F)c(-c4cc5c(s4)C4(CN(C)C5=O)CC(F)(F)C4)n3)nc1)C2 [Example 85, 2′-(2-((5-(6-Ethyl-2,6-diazaspiro[3.3]heptan-2-yl)pyridin-2-yl)amino)-5-fluoropyrimidin-4-yl)-3,3-difluoro-5′-methyl-5′,6′-dihydro-4′H-spiro[cyclobutane-1,7′-thieno[3,2-c]pyridin]-4′-one] | 20 to 200 |  | 
21 | CN1CCC(c2ccc(Nc3ncc(F)c(-c4cc5c(s4)C4(CCCC4)CN(C)C5=O)n3)nn2)CC1 [Example 87, 2-[5-Fluoro-2-[[6-(1-methylpiperidin-4-yl)pyridazin-3-yl]amino]pyrimidin-4-yl]-5-methylspiro[6H-thieno[3,2-c]pyridine-7,1′-cyclopentane]-4-one] | 20 to 200 |  | 
